Conditions: Liquid

CC(O)CO (stereo not given) [1,2-propanediol]
Conditions | vapor or sublimation pressure [kPa]
393.22 K | 8.198
393.25 K | 8.207
398.09 K | 10.23
403.14 K | 12.77
403.15 K | 12.77
408.3 K | 15.89
413.1 K | 19.36
413.15 K | 19.39
418.16 K | 23.68
423.15 K | 28.69
423.26 K | 28.81

COCC(C)O (stereo not given) [1-methoxy-2-propanol]
Conditions | vapor or sublimation pressure [kPa]
347.62 K | 19.25
352.64 K | 23.74
353.15 K | 24.25
357.89 K | 29.35
362.93 K | 35.72
363.15 K | 36.03
368.03 K | 43.29
373.15 K | 52.16
373.22 K | 52.3
378.01 K | 61.89

CCCCCCOCCOCCO [2-(2-hexyloxyethoxy)ethanol]
Conditions | vapor or sublimation pressure [kPa]
402.96 K | 1.111
403.01 K | 1.117
403.15 K | 1.124
408.02 K | 1.435
413.15 K | 1.831
413.2 K | 1.835
418.17 K | 2.293
422.87 K | 2.825
423.15 K | 2.858

CN1CCCC1=O [N-methylpyrrolidone]
Conditions | vapor or sublimation pressure [kPa]
352.27 K | 1.285
352.48 K | 1.297
353.15 K | 1.344
359.26 K | 1.823
363.15 K | 2.193
363.36 K | 2.217
368.27 K | 2.777
373.09 K | 3.444
373.15 K | 3.456
377.86 K | 4.229
